Here are results for 10 molecules from patent US6979732B1, “Polynucleotide compositions encoding S-adenosyl-L-methionine:phosphoethanolamine N-methyltransferase and methods for modulating lipid biosynthesis in plants” (University of Florida, priority 2000, dated 2005).

Bounds are passed on as bounds.

The target in one series is T1, ΔPEAMT (Spinacia oleracea, UniProt Q9M571).
T1 construct: made in house; host or cells: Schizosaccharomyces pombe Bx22 (leu1 cho2-) carrying pREP3-ΔPEAMT; desalted crude extract, not purified
T1 sequence (Q9M571 with tags, fused parts or gaps): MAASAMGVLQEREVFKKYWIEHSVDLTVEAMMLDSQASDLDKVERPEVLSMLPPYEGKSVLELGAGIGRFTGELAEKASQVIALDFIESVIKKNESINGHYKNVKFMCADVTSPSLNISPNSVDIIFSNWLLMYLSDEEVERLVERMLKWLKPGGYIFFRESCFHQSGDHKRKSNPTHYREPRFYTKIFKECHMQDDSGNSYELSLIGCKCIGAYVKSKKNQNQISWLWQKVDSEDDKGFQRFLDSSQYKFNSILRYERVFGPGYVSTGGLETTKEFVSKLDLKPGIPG
Nature of the series: PEAMT activity assay with extracts of S. pombe Bx22 cells expressing truncated ΔPEAMT. The class given is biochemical. How it is done: The plasmid encoding PEAMT, designated pREP3-PEAMT, was digested with BamHI and end-polished with T4 DNA polymerase. The 3'-sequence of PEAMT was removed by digestion with MscI; the remaining sequence plus vector was gel-purified and religated to give ΔPEAMT. In ΔPEAMT the native coding sequence terminates at […], and the pREP3 polylinker adds the sequence […] to the carboxyl-terminus. Cells were grosn to an OD600 of ≈1 in 50 ml of medium at 30° C., shaking at 250 rpm. […] Subsequent operations were at 0-4° C. Cells were harvested by centrifugation (5000×g, 10 min), washed twice with water and once with 100 mM HEPES-KOH, pH 7.8, resuspended in 0.5 ml of lysis buffer (100 mM HEPES-KOH, pH 7.8, 2 mM Na2EDTA, 5 mM dithiothreitol, 10% glycerol) and transferred to 2-ml microfuge tubes containing ≈1.5 g of acid-washed glass beads (425-600 μm). Cells were broken by vortexing at maximum speed for 2 min. The brei was centrifuged (16,000×g, 2 min), the supernatant was removed and the beads were washed with 3×1 ml of lysis buffer. The combined supernatants were clarified by centrifugation (16,000×g, 15 min) and desalted on a PD-10 column (Amersham Pharmacia Biotech, Piscataway, N.J.) equilibrated with storage buffer (10 mM HEPES-KOH, pH 7.8, 2 mM Na2EDTA, 5 mM dithiotreitol, 10% glycerol). The extract was aliquotted, frozen in liquid N2 and stored at […]. Spinach leaf extracts were prepared as described (Summers and […], 1993). Protein was determined using the Bio-Rad dye reagent (Hercules, Calif.). Native molecular mass was estimated using a Waters 626 HPLC system (Milford, Mass.) equipped with a Superdex 200 HR 10/30 column (Amersham Pharmacia Biotech) as described ([…] al., 1995). PEAMT activity was measured by a modification of published methods (Datko and Mudd, 1988b; Summers and […], 1993), under conditions in which product formation was proportional to enzyme concentration and time. […] Products were eluted with 10 ml of 0.1 N HCl, and 2 ml of the eluate was mixed with 3 ml of Ready Gel scintillation fluid (Beckman, Palo Alto, Calif.) and counted. […]

For series [1], the target named is T2, PEAMT (Spinacia oleracea, UniProt Q9M571).
T2 construct: The PEAMT cDNA comprises a 494-residue open reading frame; made in house; host or cells: Schizosaccharomyces pombe Bx22 (leu1 cho2-) carrying pREP3-PEAMT; desalted crude extract, not purified
T2 sequence (Q9M571 1-494): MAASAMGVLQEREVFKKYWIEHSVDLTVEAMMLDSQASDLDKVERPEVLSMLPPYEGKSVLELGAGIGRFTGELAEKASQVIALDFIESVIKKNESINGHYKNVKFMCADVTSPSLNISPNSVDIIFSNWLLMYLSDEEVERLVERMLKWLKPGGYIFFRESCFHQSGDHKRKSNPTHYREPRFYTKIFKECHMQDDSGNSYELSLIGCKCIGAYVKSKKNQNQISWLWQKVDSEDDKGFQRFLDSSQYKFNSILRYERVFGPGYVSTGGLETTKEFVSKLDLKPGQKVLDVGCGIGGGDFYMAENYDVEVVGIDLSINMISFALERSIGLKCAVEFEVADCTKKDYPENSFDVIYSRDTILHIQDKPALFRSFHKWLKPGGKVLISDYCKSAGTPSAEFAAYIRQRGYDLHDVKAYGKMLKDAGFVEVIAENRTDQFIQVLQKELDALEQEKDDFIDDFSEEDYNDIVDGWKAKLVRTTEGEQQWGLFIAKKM
Kind of series: PEAMT activity assay with extracts of S. pombe Bx22 cells expressing recombinant wild type PEAMT. The class given is biochemical. The note with it: for inhibition of PEAMT activity (in words): metabolite at 2 mM. How it is done:
Cells were grosn to an OD600 of ≈1 in 50 ml of medium at 30° C., shaking at 250 rpm. […] Subsequent operations were at 0-4° C. Cells were harvested by centrifugation (5000×g, 10 min), washed twice with water and once with 100 mM HEPES-KOH, pH 7.8, resuspended in 0.5 ml of lysis buffer (100 mM HEPES-KOH, pH 7.8, 2 mM Na2EDTA, 5 mM dithiothreitol, 10% glycerol) and transferred to 2-ml microfuge tubes containing ≈1.5 g of acid-washed glass beads (425-600 μm). Cells were broken by vortexing at maximum speed for 2 min. The brei was centrifuged (16,000×g, 2 min), the supernatant was removed and the beads were washed with 3×1 ml of lysis buffer. The combined supernatants were clarified by centrifugation (16,000×g, 15 min) and desalted on a PD-10 column (Amersham Pharmacia Biotech, Piscataway, N.J.) equilibrated with storage buffer (10 mM HEPES-KOH, pH 7.8, 2 mM Na2EDTA, 5 mM dithiotreitol, 10% glycerol). The extract was aliquotted, frozen in liquid N2 and stored at […]. Spinach leaf extracts were prepared as described (Summers and […], 1993). Protein was determined using the Bio-Rad dye reagent (Hercules, Calif.). Native molecular mass was estimated using a Waters 626 HPLC system (Milford, Mass.) equipped with a Superdex 200 HR 10/30 column (Amersham Pharmacia Biotech) as described ([…] al., 1995). PEAMT activity was measured by a modification of published methods (Datko and Mudd, 1988b; Summers and […], 1993), under conditions in which product formation was proportional to enzyme concentration and time. […] Reactions were stopped by adding 1 ml of ice-cold water; each was applied to a 1-ml AG-50 (HR^+) column held at 4° C. and the assay tube was rinsed with 1 ml of water, which was also applied to the column. Products were eluted with 10 ml of 0.1 N HCl, and 2 ml of the eluate was mixed with 3 ml of Ready Gel scintillation fluid (Beckman, Palo Alto, Calif.) and counted. For assay blanks, enzyme was omitted during incubation and added just before the ion exchange step.

The target of series [2] is T2, PEAMT. Nature of the series: AdoMet:EA N-methyltransferase activity assay of the complemented strain. The class given is biochemical. The note with it: complemented strain extract. How it is done: (§1) AdoMet:EA N-methyltransferase activity was assayed as above except that reactions contained 200 nmol EA and 160 nmol (40 nCi) of [methyl-^14C]AdoMet. The [methyl-^14C]AdoMet was removed by treating with activated charcoal and centrifuging (Cook and Wagner, 1984), and ^14C-incorporation into freebase products was measured by counting a sample of the supernatant. […] For assay blanks, EA was omitted. AdoMet:Ptd-EA N-methyltransferase activity was measured essentially as described (Datko and Mudd, 1988b). Assays (final volume 100 μl) contained 9 μl 10X assay buffer, 0.8 nmol (47 nCi) [methyl-^14C]AdoMet, 10 μl of a Ptd-EA emulsion in 1× assay buffer (10 mg ml^−1, sonicated for 3×30 sec), and enzyme extract; incubation was for 30 min at 30° C. The phospholipid fraction was isolated for ^14C quantification as described (Datko and Mudd, 1988b) except that the methanol:chloroform:water proportions were 12:5:1 (vol./vol./vol.). Data were corrected for the ^14C incorporation in control assays containing extract from Bx22 cells.

Series [3] deals with T2, PEAMT. Kind of series: AdoMet:Ptd-EA N-methyltransferase activity assay of the complemented strain. The class given is biochemical. The note with it: complemented strain extract. How it is done:
as §1

Substrate in series [4]: NCCOP(=O)(O)O
Kind of series: PEAMT activity assay with extracts of S. pombe Bx22 cells expressing recombinant wild type PEAMT. The class given is biochemical, Spinacia oleracea. The conditions noted are these: other: recombinant PEAMT, substrate. How it is done:
Cells were grosn to an OD600 of ≈1 in 50 ml of medium at 30° C., shaking at 250 rpm. […] Subsequent operations were at 0-4° C. Cells were harvested by centrifugation (5000×g, 10 min), washed twice with water and once with 100 mM HEPES-KOH, pH 7.8, resuspended in 0.5 ml of lysis buffer (100 mM HEPES-KOH, pH 7.8, 2 mM Na2EDTA, 5 mM dithiothreitol, 10% glycerol) and transferred to 2-ml microfuge tubes containing ≈1.5 g of acid-washed glass beads (425-600 μm). Cells were broken by vortexing at maximum speed for 2 min. The brei was centrifuged (16,000×g, 2 min), the supernatant was removed and the beads were washed with 3×1 ml of lysis buffer. The combined supernatants were clarified by centrifugation (16,000×g, 15 min) and desalted on a PD-10 column (Amersham Pharmacia Biotech, Piscataway, N.J.) equilibrated with storage buffer (10 mM HEPES-KOH, pH 7.8, 2 mM Na2EDTA, 5 mM dithiotreitol, 10% glycerol). […] Protein was determined using the Bio-Rad dye reagent (Hercules, Calif.). […] PEAMT activity was measured by a modification of published methods (Datko and Mudd, 1988b; Summers and […], 1993), under conditions in which product formation was proportional to enzyme concentration and time. […] Products were eluted with 10 ml of 0.1 N HCl, and 2 ml of the eluate was mixed with 3 ml of Ready Gel scintillation fluid (Beckman, Palo Alto, Calif.) and counted. […]

Setting [5] is: 3-hr incubation, small quantity of P-EA, 5-fold excess of [methyl-14C]AdoMet.

The inhibition is the share of the control response that was lost under treatment. One may read the Km as the concentration of substrate that gives half-maximal velocity.

As to `C[N+](C)(C)CCOP(=O)([O-])O` [P-Cho, phosphocholine], the “sensitivity of ΔPEAMT to P-Cho compared with the wild-type enzyme” value at ΔPEAMT (10 mM P-Cho, P=0.05) is listed as “retaining twice as much of its initial activity”. In addition, on PEAMT [1] (2 mM P-Cho, 50 nmol P-EA, 170 nmol [methyl-14C]AdoMet, 10 min), the “reduction of PEAMT activity” value is 80%. In addition, the inhibition at 10000 µM on PEAMT [1] (10 mM P-Cho, saturating P-EA concentration, read-out: reduction (inhibition) of PEAMT activity) amounted to 95%. For the molecule “S-adenosyl-L-methionine:phosphoethanolamine N-methyltransferase [PEAMT]”, the “PEAMT activity in the absence of P-Cho” value on PEAMT [1] (25 μg protein, 10 min, 50 nmol P-EA, 170 nmol AdoMet) is reported as 737±18 pkat mg^−1 protein. In addition, the reaction product result on PEAMT [1] (setting [5]) was “almost solely [^14C]P-Cho”. Further, the “specific activity of PEAMT in extracts of complemented cells relative to spinach leaves” value on PEAMT [1] (FIG. 2A) was “up to 80 fold”. For the same molecule, on PEAMT [1] (recombinant PEAMT), the “pH optimum of PEAMT activity” value is recorded as 8.1-8.5. Turning to `NCCO` [EA, ethanolamine], the “activity with EA as substrate” value at PEAMT [2] was under 1 pkat mg^−1 protein. `C[N+](C)(C)CC(=O)[O-]` [GlyBet, glycine betaine]: at PEAMT [1], the “inhibition of PEAMT activity (in words)” value is “not inhibitory”. Take phosphatidylethanolamine [Ptd-EA]: the “activity with Ptd-EA as substrate” value on PEAMT [3] is given as under 1 pkat mg^−1 protein. With `C[S+](CC[C@H](N)C(=O)[O-])C[C@H]1O[C@@H](n2cnc3c(N)ncnc32)[C@H](O)[C@@H]1O` (stereo partly drawn) [AdoMet, S-adenosyl-L-methionine], the Km on PEAMT [1] (recombinant PEAMT, substrate) was 140 µM.

With `CN(C)CCO` [DME], the “inhibition of PEAMT activity (in words)” value at PEAMT [1] is on record as “not inhibitory”. The same measure, in the same setting: the value for `CNCCO` [MME] was “not inhibitory”.

B1: PEAMT (Spinacia oleracea) (protein)
chain: T2 sequence (Q9M571 1-494)
notes: The PEAMT cDNA comprises a 494-residue open reading frame; made in house; host or cells: Schizosaccharomyces pombe Bx22 (leu1 cho2-) carrying pREP3-PEAMT; desalted crude extract, not purified
Regarding B1, the Km in series [4] is 96 µM.

B2: ΔPEAMT: truncated spinach PEAMT; native coding sequence terminates at Gly-286, plus Ile Pro Gly; SEQ ID NO:4 (protein, listed as Spinacia oleracea)
chain: T1 sequence (Q9M571 with tags, fused parts or gaps)
Regarding B2, the “PEAMT activity in the absence of P-Cho” value with ΔPEAMT (50 μg protein, 10 min, 50 nmol P-EA, 170 nmol AdoMet) came to 200±10 pkat mg^−1 protein. Besides, the reaction product entry in the series with ΔPEAMT (setting [5]) was “only [^14C]P-MME”.
